Patent publication US8663607B2, “Ferrate(VI)-containing compositions and methods of using ferrate(VI)” (Battelle Memorial Institute, priority 2007, dated 2014)

How the values were obtained:
[1] = Reactivity of ferrate(VI) in nonpolar media; assay type: physicochemical; conditions: such as oils, solvents, waxes
[2] = Stain removal from calcium deficient hydroxyapatite disks (human tooth model), tea stain; conditions: disk T: 1 mL of 3% hydrogen peroxide + 0.5 g sodium bicarbonate, applied twice, 5 minutes, water soak 45 minutes
Procedure: Tea staining Solution: 200 mL of high-purity deionized (HPDI) water was heated to boiling in a 500-mL beaker. The beaker was removed from heat and 4 Lipton™ tea bags were added. The tea bags were allowed to soak for 5 minutes. The tea bags were pressed with a spatμLa upon removal to remove liquid.
Tea staining Procedure: A calcium-deficient hydroxyapatite (HAP) disk (Clarkson Chromatography Products) was placed into a 50-mL centrifuge tube with 10 mL of tea solution. The centrifuge tube was gently shaken by hand for 15 minutes. The tea solution was decanted and replaced with 10 mL of HPDI water and vortexed for 30 seconds. The water was decanted and replaced with 10 additional mL of HPDI water and vortexed for 30 seconds. The disk was removed with forceps and patted dry with a tissue. The disk was allowed to air dry at room temperature for at least one hour.
Oxidation resistant chelating buffer: 0.25M 1-Hydroxyethylidenediphosphonic acid (etridonic acid) (Dequest® 2010, Thermphos) (HEPA) was pH adjusted by microtitration with 10N NaOH. 1.28 g of 1-Hydroxyethylidenediphosphonic acid was to a 25-mL volumetric flask and brought to volume with HPDI water. The solution was transferred to a 50-mL beaker with a stir bar and pH adjusted using 10.04N NaOH, monitored with a calibrated pH meter. Aliquat 336® (Cognis) (also suitable is Aliquat 134®) (N-methyl-tri-(n-octyl)ammonium chloride), (N-methyl TOA) or “HEPA” chelating pH Buffer: 2.5-μL of N-methyl TOA was added to 5 mL of pH 7 HEPA buffer and sonicated for 1 minute. pH 7 Sodium Dodecyl Sulfate (SDS)/HEPA Buffer: 10 mg of SDS was added to 5 mL of pH 7 HEPA buffer and sonicated for 1 minute. pH 8 SDS/HEPA Buffer: 10 mg of SDS was added to 5 mL of pH 8 HEPA buffer and sonicated for 1 minute.
• A. A tea stained disk was placed into the bowl of the bowl of a watch glass and 100 μL of pH 7 HEPA buffer was pipetted onto the disk surface. 3.7 mg of potassium ferrate(VI) was added to the disk surface and mixed gently. […] The disk was rinsed at 10 minutes with HPDI water. […] 1 mL of pH 7 HEPA buffer was added followed by 9 mL of HPDI water. 9.7 mg of potassium ferrate(VI) was added. The tube was gently hand shaken for 10 minutes. The disk was removed and rinsed with HPDI water. […] 10 mg of potassium ferrate(VI) was added to 1 mL of pH 7 HEPA buffer in a 50 mL centrifuge tube. 9 mL HPDI water was added, and the solution was shaken for a few seconds followed by the addition of a tea stained HAP disk. The disk was removed at 10 minutes and rinsed with HPDI water. […] 1.3 mg of potassium ferrate(VI) added and mixed into the solution.

For ferrate(VI), which “reactivity in nonpolar media” value [1] is on record?
The value was “unreactive”.

Which “L* (lightness/darkness)” value [2] does the source give for `OO` [hydrogen peroxide, reference compound] here?
The value was 96.9.

What about the “a* (blue/red)” value [2] of the same molecule?
Its value is 0.4.

What about the “appearance of disk after treatment” value [2] of the same molecule?
Its value is “Much of the color was removed”.

What about the “b* (yellow/green)” value [2] of the same molecule?
The value was 0.3.

And the “reflectance of visible light at 450 nm” value [2]?
The value was 89.892.

And the “reflectance of visible light at 750 nm” value [2]?
The value was 94.030.

And the “ΔE (versus tea stain)” value [2]?
The value was 13.44.
